Common to all, as to type: biochemical
One assay addresses TYK2 (Homo sapiens, UniProt P29597). Nature of the assay: Enzyme screening kinase assay, TYK2. As to the method:
(§1) Kinase assays were performed based on the method reported by Anastassiadis, T; et al Nature Biotechnology (2011); 29 (11); p 1039-p 1045 (doi:10.1038/nbt.2017).

Another assay addresses JAK2 (Homo sapiens, UniProt O60674). Nature of the assay: Enzyme screening kinase assay, JAK2. The method, then:
as §1

For a further assay, the target named is T1, JAK3 (Homo sapiens, UniProt P52333).
T1 sequence (P52333 1-1124): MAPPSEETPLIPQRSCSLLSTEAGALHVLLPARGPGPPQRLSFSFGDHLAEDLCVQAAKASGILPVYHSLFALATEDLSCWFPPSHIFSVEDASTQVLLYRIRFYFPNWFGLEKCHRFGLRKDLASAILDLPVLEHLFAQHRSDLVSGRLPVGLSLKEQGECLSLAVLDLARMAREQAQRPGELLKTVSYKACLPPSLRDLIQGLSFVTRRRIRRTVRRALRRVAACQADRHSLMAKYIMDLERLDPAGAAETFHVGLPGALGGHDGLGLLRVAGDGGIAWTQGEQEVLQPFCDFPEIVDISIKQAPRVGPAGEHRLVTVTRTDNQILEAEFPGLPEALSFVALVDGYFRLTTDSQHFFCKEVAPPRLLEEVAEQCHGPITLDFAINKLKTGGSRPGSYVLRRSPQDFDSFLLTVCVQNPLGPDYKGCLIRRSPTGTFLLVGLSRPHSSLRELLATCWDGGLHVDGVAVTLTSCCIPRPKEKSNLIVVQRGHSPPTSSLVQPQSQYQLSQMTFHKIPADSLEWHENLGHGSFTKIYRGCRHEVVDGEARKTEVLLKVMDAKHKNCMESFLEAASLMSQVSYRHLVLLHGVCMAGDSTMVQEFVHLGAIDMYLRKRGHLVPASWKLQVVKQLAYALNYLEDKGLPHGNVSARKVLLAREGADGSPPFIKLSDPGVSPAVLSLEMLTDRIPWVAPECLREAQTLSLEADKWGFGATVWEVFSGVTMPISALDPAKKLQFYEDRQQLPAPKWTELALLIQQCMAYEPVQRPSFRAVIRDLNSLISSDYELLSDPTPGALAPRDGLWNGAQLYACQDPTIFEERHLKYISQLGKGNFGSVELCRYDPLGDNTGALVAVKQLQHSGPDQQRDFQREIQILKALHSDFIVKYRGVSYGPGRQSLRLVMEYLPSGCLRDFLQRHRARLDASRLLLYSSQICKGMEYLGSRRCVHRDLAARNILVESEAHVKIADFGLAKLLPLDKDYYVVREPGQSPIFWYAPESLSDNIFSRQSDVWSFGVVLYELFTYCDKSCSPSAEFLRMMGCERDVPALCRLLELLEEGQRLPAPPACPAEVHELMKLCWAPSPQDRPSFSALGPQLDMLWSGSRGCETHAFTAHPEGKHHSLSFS
The assay can be described thus: Enzyme screening kinase assay, JAK3. The method, then:
as §1

A further assay has as its target JAK1 (Homo sapiens, UniProt P23458). The assay can be described thus: Enzyme screening kinase assay, JAK1. The method, then: as §1
Setting [1] is: Data 1, read-out: TYK2 IC50 Data 1.
The mark [2] stands for this setting: Data 2, read-out: TYK2 IC50 Data 2.
Setting [3] is: Data 1, read-out: JAK2 IC50 Data 1.
Setting [4] is: Data 2, read-out: JAK2 IC50 Data 2.
Where [5] appears, read: Data 1, read-out: JAK3 IC50 Data 1.
Where [6] appears, read: Data 2, read-out: JAK3 IC50 Data 2.
Setting [7] is: Data 1, read-out: JAK1 IC50 Data 1.
The mark [8] stands for this setting: Data 2, read-out: JAK1 IC50 Data 2.

Where two headings read alike, the source gives them in different places.

Sequence of JAK2 (O60674 whole entry): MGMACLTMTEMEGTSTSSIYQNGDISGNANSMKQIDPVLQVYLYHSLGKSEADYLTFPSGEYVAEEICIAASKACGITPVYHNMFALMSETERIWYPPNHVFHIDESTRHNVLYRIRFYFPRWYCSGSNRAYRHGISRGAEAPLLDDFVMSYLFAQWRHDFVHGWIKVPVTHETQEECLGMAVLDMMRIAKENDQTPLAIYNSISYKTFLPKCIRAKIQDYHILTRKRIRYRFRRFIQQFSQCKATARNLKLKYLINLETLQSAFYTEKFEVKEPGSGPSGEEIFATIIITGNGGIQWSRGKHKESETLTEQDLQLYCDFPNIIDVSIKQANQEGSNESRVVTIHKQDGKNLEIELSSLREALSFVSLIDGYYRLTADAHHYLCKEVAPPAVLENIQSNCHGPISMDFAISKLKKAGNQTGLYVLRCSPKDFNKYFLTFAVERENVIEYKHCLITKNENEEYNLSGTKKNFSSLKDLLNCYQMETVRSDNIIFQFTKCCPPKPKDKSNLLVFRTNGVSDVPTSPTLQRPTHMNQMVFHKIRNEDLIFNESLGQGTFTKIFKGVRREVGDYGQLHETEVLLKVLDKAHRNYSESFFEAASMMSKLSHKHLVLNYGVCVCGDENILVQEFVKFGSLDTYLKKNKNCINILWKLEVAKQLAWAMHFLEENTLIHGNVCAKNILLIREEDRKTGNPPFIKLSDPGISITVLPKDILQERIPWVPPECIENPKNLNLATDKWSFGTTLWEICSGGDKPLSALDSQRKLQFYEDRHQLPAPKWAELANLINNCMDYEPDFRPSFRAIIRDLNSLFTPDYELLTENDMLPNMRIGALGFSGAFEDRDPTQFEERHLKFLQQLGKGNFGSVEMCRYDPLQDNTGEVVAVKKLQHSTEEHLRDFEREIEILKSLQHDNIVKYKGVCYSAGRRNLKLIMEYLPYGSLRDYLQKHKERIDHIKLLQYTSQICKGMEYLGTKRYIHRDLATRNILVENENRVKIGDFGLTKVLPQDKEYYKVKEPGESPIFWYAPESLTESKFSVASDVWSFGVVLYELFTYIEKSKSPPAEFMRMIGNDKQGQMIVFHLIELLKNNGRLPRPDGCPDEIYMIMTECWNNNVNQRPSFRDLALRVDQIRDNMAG
Sequence of JAK1 (P23458 whole entry): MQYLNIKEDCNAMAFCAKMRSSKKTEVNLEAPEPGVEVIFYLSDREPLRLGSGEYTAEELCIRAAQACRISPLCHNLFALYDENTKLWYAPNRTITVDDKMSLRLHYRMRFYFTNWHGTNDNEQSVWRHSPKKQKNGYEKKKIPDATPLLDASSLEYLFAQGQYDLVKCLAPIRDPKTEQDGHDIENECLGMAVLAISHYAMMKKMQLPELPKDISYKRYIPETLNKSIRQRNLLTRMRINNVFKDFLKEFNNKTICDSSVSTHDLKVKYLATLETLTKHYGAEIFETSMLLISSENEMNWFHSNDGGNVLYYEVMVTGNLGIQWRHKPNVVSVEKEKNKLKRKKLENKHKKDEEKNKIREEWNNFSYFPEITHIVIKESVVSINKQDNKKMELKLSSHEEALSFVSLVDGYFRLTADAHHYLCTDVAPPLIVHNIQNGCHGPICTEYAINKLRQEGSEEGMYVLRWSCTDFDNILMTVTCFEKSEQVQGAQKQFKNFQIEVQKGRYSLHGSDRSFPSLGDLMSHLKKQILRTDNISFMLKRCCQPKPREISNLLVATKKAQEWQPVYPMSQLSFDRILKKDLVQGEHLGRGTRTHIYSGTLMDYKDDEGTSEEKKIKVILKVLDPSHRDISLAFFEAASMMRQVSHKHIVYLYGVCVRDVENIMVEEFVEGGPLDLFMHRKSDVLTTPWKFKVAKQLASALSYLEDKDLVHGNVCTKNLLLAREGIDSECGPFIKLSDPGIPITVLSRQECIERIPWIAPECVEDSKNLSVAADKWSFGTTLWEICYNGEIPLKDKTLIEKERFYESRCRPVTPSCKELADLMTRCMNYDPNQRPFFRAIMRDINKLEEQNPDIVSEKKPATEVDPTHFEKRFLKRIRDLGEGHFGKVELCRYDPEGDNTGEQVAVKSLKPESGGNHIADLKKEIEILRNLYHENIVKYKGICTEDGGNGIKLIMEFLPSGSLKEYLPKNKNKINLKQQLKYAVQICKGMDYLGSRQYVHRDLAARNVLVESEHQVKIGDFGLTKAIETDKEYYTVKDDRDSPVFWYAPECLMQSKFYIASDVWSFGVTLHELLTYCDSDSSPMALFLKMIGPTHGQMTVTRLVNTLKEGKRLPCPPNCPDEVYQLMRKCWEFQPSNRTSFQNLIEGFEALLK
Sequence of TYK2 (P29597 whole entry): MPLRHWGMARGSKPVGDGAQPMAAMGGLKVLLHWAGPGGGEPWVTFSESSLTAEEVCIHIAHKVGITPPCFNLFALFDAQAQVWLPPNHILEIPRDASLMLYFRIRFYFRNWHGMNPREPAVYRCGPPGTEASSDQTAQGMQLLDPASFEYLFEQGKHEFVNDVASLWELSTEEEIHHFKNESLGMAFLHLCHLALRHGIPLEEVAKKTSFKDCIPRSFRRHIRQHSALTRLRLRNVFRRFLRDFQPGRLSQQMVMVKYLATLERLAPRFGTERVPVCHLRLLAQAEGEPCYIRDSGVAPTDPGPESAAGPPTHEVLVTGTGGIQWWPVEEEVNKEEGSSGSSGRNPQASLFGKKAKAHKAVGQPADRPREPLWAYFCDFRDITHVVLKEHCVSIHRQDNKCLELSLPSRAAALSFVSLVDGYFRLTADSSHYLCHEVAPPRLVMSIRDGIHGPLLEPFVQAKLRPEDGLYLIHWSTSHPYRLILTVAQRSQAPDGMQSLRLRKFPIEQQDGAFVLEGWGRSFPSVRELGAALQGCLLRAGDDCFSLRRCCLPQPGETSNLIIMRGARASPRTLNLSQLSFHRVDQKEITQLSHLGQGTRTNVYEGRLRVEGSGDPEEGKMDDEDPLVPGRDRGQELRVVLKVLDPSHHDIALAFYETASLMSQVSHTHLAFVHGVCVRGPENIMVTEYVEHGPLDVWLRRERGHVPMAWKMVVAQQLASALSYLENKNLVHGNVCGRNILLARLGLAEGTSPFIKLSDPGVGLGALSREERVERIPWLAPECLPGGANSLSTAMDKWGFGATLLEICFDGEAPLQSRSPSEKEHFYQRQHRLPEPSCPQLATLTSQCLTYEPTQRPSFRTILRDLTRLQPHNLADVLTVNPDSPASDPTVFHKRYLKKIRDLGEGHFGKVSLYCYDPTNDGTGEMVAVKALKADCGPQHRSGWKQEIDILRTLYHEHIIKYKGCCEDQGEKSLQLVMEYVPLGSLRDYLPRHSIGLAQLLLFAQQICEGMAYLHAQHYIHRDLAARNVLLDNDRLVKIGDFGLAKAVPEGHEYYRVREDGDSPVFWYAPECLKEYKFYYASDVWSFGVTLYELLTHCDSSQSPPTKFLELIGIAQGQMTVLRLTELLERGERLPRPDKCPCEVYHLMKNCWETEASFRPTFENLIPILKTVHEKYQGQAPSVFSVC

Take `N#CCNC(=O)c1ccc(-c2ccnc(Nc3ccc(N4CC5CC(C4)O5)cc3)n2)cc1` [Compound 3, 4-(2-((4-(6-oxa-3-azabicyclo[3.1.1]heptan-3-yl)phenyl)amino)pyrimidin-4-yl)-N-(cyanomethyl)benzamide]: the IC50 at TYK2 (setting [1]) is 6.83 nM; on TYK2 (setting [2]), 7.3 nM; at JAK2 (setting [3]) it was 47 nM; at JAK2 (setting [4]), 45 nM; on JAK3 (setting [5]), 80.1 nM; on JAK3 (setting [6]), 82.4 nM. Besides, the half-maximal inhibitory concentration (IC50) was found to be 32.3 nM at JAK1 (setting [7]) and 41.7 nM at JAK1 (setting [8]).
Take `N#CCNC(=O)c1ccc(-c2ccnc(Nc3ccc(N4CC5(CCO5)C4)cc3)n2)cc1` [Compound 1, 4-(2-((4-(1-oxa-6-azaspiro[3.3]heptan-6-yl)phenyl)amino)pyrimidin-4-yl)-N-(cyanomethyl)benzamide]: the IC50 at TYK2 (setting [1]) stood at 38 nM; at TYK2 (setting [2]), 35 nM; at JAK2 (setting [3]), 108 nM; on JAK2 (setting [4]) it was 103 nM; on JAK3 (setting [5]) it was 213 nM; on JAK3 (setting [6]), 194 nM. Besides, the results for the IC50 at JAK1 (setting [7]) and on JAK1 (setting [8]) were 224 nM and 215 nM, respectively.
As to `N#CCNC(=O)c1ccc(-c2ccnc(Nc3ccc(N4C[C@@H]5C[C@H]4CO5)cc3)n2)cc1` [Compound 9, 4-(2-((4-((1S,4S)-2-oxa-5-azabicyclo[2.2.1]heptan-5-yl)phenyl)amino)pyrimidin-4-yl)-N-(cyanomethyl)benzamide], the concentration for half-maximal inhibition (IC50) at TYK2 (setting [1]) was 8.07 nM; at TYK2 (setting [2]) it was 7.4 nM; at JAK2 (setting [3]), 11.1 nM; at JAK2 (setting [4]) it was 13.4 nM; at JAK3 (setting [5]), 12.8 nM; on JAK3 (setting [6]), 14 nM. Besides, the IC50 at JAK1 (setting [7]) turned out to be 22.4 nM; at JAK1 (setting [8]), 21.7 nM.
As for `N#CCNC(=O)c1ccc(-c2ccnc(Nc3ccc(N4CC5(COC5)C4)cc3)n2)cc1` [Compound 11, 4-(2-((4-(2-oxa-6-azaspiro[3.3]heptan-6-yl)phenyl)amino)pyrimidin-4-yl)-N-(cyanomethyl)benzamide], the half-maximal inhibitory concentration (IC50) was determined as 9.47 nM at TYK2 (setting [1]); 8.54 nM on TYK2 (setting [2]); 10.6 nM on JAK2 (setting [3]); 10.8 nM on JAK2 (setting [4]); 33.8 nM at JAK3 (setting [5]); 26.3 nM on JAK3 (setting [6]). For the same molecule, the IC50 at JAK1 (setting [7]) came to 32.8 nM; on JAK1 (setting [8]), 47.4 nM.
Consider `N#CCNC(=O)c1ccc(-c2ccnc(Nc3ccc(N4CC[C@]5(CCO5)C4)cc3)n2)cc1` [Compound 7, (S)-4-(2-((4-(1-oxa-6-azaspiro[3.4]octan-6-yl)phenyl)amino)pyrimidin-4-yl)-N-(cyanomethyl)benzamide], for which the 50% inhibitory concentration (IC50) turned out to be 4.87 nM at TYK2 (setting [1]); 4.29 nM at TYK2 (setting [2]); 30.3 nM at JAK2 (setting [3]); 34 nM at JAK2 (setting [4]); 60.9 nM on JAK3 (setting [5]); 50.8 nM on JAK3 (setting [6]). The concentration for half-maximal inhibition (IC50) was determined as 31.5 nM on JAK1 (setting [7]) and 29.2 nM on JAK1 (setting [8]).
Regarding `N#CCNC(=O)c1ccc(-c2ccnc(Nc3ccc(N4C[C@H]5C[C@@H]4CO5)cc3)n2)cc1` [Compound 10, 4-(2-((4-((1R,4R)-2-oxa-5-azabicyclo[2.2.1]heptan-5-yl)phenyl)amino)pyrimidin-4-yl)-N-(cyanomethyl)benzamide], the concentration for half-maximal inhibition (IC50) came out at 4.31 nM on TYK2 (setting [1]); 2.58 nM on TYK2 (setting [2]); 17 nM on JAK2 (setting [3]); 16.8 nM on JAK2 (setting [4]); 22.1 nM at JAK3 (setting [5]); 27 nM at JAK3 (setting [6]). Besides, the half-maximal inhibitory concentration (IC50) on JAK1 (setting [7]) amounted to 16 nM; on JAK1 (setting [8]) it was 15.9 nM.
On to `N#CCNC(=O)c1ccc(-c2ccnc(Nc3ccc(N4CC[C@@]5(CCO5)C4)cc3)n2)cc1` [Compound 8, (R)-4-(2-((4-(1-oxa-6-azaspiro[3.4]octan-6-yl)phenyl)amino)pyrimidin-4-yl)-N-(cyanomethyl)benzamide], for which the IC50 came out at 9.98 nM on TYK2 (setting [1]); 9.98 nM at TYK2 (setting [2]); 43.5 nM at JAK2 (setting [3]); 46.4 nM on JAK2 (setting [4]); 79.3 nM at JAK3 (setting [5]); 78.5 nM on JAK3 (setting [6]). Also, the IC50 at JAK1 (setting [7]) was 56.9 nM; on JAK1 (setting [8]), 35.7 nM.
On to `N#CCNC(=O)c1ccc(-c2ccnc(Nc3ccc(N4CCC[C@@]5(CCO5)C4)cc3)n2)cc1` [Compound 6, (R)-4-(2-((4-(1-oxa-6-azaspiro[3.5]nonan-6-yl)phenyl)amino)pyrimidin-4-yl)-N-(cyanomethyl)benzamide], for which the half-maximal inhibitory concentration (IC50) on TYK2 (setting [1]) was 2.94 nM; at TYK2 (setting [2]), 2.14 nM; at JAK2 (setting [3]), 14.2 nM; on JAK2 (setting [4]) it was 14.1 nM; at JAK3 (setting [5]), 33.4 nM; on JAK3 (setting [6]), 32.7 nM. For the same molecule, the half-maximal inhibitory concentration (IC50) at JAK1 (setting [7]) stood at 17.5 nM; on JAK1 (setting [8]), 19.8 nM.
As for `N#CCNC(=O)c1ccc(-c2ccnc(Nc3ccc(N4CCC5(CCO5)CC4)cc3)n2)cc1` [Compound 2, 4-(2-((4-(1-oxa-7-azaspiro[3.5]nonan-7-yl)phenyl)amino)pyrimidin-4-yl)-N-(cyanomethyl)benzamide], the IC50 stood at 5.09 nM on TYK2 (setting [1]); 5.65 nM on TYK2 (setting [2]); 22.2 nM at JAK2 (setting [3]); 24.5 nM at JAK2 (setting [4]); 41.8 nM on JAK3 (setting [5]); 44.8 nM on JAK3 (setting [6]). In addition, the IC50 at JAK1 (setting [7]) came to 30.6 nM; at JAK1 (setting [8]) it was 37.9 nM.
With `N#CCNC(=O)c1ccc(-c2ccnc(Nc3ccc(N4CC5CCC(C4)O5)cc3)n2)cc1` [Compound 4, 4-(2-((4-(8-oxa-3-azabicyclo[3.2.1]octan-3-yl)phenyl)amino)pyrimidin-4-yl)-N-(cyanomethyl)benzamide], the half-inhibitory concentration (IC50) on TYK2 (setting [1]) was 5.22 nM; at TYK2 (setting [2]) it was 6.17 nM; on JAK2 (setting [3]) it was 29.3 nM; at JAK2 (setting [4]) it was 29.1 nM; at JAK3 (setting [5]), 92.3 nM; at JAK3 (setting [6]), 80.8 nM. The IC50 on JAK1 (setting [7]) came out at 28.8 nM; on JAK1 (setting [8]), 28.6 nM.
As to `N#CCNC(=O)c1ccc(-c2ccnc(Nc3ccc(N4CCC[C@]5(CCO5)C4)cc3)n2)cc1` [Compound 5, (S)-4-(2-((4-(1-oxa-6-azaspiro[3.5]nonan-6-yl)phenyl)amino)pyrimidin-4-yl)-N-(cyanomethyl)benzamide], the IC50 was 0.69 nM at TYK2 (setting [1]); 0.91 nM on TYK2 (setting [2]); 30 nM on JAK2 (setting [3]); 25.9 nM on JAK2 (setting [4]); 60.9 nM at JAK3 (setting [5]); 56.3 nM at JAK3 (setting [6]). Moreover, the half-inhibitory concentration (IC50) was 10.1 nM on JAK1 (setting [7]) and 10.2 nM on JAK1 (setting [8]).

The values above are taken from patent US8809359B2, “Phenyl amino pyrimidine bicyclic compounds and uses thereof” (YM Biosciences Australia Pty Ltd, priority 2012, dated 2014).
